The target of the assay is T1, N-type calcium channel (Homo sapiens, UniProt Q00975).
T1 construct: endogenous in cells
The assay can be described thus: Determination of inhibitory activity on N-type calcium channel (Fura-2 calcium influx, KCl depolarization, with nifedipine). The conditions noted are these: compound at final concentration of 3 μM, depolarized by 80 mM potassium chloride, Fura-2 fluorescence, read-out: Inhibitory activity on Ca influx (%). It counts as cell-based. The protocol:
Determination of Inhibitory Activity on N-Type Calcium Channel:
Cell line was differentiated according to the method described in FEBS Letters, 235, 178-182, 1988. The cell was loaded with fluorescent reagent, Fura-2•AM (at the final concentration of 10 μM), at 37° C. for 30 minutes and suspended in Krebs-buffer containing HEPES (25 mM) to obtain the cell suspension. The obtained cell suspension was incubated in the presence or absence of the compounds of the present invention with nifedipine for 5 minutes. The cell was depolarized by adding potassium chloride solution (at the final concentration of 80 mM) thereto and then a fluorescence intensity at the emission wavelength of 500 nm excited by the UV of 340 nm and 380 nm alternately was measured using the intracellular calcium analyzer (Nippon Bunko Co., CAF-110). The inhibitory activity of the compound of the present invention (at the final concentration of 3 μM) on calcium influx into the cell was calculated from the difference in changing the fluorescence intensity at peak (ΔR) according to the following equation. [formula]

Where a name gives a salt, the structure may show the parent alone.

T1 sequence (Q00975 whole entry): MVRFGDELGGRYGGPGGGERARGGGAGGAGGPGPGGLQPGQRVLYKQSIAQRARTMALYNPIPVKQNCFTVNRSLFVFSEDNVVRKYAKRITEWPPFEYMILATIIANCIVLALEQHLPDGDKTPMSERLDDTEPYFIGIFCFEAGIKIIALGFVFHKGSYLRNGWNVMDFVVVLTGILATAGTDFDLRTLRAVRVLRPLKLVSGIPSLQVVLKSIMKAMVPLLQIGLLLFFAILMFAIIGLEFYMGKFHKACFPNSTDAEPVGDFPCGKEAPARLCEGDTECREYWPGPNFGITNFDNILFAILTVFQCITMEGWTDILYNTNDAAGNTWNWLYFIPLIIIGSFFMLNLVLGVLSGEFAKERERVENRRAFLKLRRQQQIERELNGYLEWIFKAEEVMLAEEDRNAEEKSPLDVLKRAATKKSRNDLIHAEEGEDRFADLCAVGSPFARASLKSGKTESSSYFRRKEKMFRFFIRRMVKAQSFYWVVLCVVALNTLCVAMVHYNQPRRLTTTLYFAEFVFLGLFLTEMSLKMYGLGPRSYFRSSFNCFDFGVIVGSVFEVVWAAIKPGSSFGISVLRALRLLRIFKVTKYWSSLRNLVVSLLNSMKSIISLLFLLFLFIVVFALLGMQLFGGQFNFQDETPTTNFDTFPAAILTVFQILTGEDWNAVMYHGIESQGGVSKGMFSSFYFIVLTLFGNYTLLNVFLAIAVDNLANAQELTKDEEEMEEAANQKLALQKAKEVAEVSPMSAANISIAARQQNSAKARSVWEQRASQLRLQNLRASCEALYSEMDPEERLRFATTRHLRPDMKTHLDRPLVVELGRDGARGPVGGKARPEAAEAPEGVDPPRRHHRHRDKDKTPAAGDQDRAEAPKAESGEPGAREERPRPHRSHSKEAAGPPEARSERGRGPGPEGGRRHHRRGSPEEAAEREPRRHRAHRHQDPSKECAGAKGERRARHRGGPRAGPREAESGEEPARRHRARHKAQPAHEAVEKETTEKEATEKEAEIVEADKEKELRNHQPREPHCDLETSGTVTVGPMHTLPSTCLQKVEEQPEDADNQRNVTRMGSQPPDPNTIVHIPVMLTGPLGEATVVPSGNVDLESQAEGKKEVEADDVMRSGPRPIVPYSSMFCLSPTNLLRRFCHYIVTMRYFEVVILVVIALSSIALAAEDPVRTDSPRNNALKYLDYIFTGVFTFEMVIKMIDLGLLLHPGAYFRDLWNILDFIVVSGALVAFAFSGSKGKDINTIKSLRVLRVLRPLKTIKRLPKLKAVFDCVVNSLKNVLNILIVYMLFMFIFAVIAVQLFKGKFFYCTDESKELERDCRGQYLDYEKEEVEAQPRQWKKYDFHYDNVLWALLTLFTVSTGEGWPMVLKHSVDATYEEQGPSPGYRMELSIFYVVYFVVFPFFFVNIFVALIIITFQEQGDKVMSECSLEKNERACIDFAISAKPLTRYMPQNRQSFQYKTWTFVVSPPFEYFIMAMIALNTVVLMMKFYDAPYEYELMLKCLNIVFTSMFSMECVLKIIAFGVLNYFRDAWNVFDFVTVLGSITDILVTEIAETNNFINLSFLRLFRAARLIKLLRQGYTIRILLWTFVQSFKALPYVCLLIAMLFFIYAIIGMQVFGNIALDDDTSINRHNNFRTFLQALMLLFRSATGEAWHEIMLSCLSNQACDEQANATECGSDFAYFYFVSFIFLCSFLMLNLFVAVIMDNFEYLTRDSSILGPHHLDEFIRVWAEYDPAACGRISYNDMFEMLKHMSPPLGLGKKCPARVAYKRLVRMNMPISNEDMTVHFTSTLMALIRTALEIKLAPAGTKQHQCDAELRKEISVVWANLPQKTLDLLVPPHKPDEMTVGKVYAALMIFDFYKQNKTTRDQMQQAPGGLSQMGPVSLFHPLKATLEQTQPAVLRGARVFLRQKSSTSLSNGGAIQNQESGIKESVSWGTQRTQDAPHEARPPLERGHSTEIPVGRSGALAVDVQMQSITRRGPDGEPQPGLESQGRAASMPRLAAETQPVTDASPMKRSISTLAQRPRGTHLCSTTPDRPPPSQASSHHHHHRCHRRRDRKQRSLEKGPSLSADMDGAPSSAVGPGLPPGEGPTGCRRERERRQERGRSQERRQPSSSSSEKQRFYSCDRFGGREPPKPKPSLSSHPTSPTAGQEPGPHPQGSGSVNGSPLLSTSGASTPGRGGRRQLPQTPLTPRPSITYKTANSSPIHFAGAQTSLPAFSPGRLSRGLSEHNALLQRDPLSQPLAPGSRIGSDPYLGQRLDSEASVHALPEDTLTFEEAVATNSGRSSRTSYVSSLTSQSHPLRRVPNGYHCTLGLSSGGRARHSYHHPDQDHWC

In the case of `CC(C)(C)OC(=O)N[C@@H](CCC(=O)OCc1ccc([N+](=O)[O-])cc1)C(=O)OC1CCCC1` [Example 2(29), (2S)-4-(4-nitrobenzyloxycarbonyl)-2-t-butoxycarbonylaminobutanoic acid.cyclopentyl ester], the inhibition at 3 µM was 75%. Next, `COc1ccc(CNC(=O)[C@H](CSCC2CCCCC2)NC(=O)OC(C)(C)C)cc1` [Example 2(80), (2R)-N-(4-methoxybenzyl)-3-cyclohexylmethylthio-2-t-butoxycarbonylamino-propanamide]: 87%.

As to `CC(C)(C)OC(=O)N[C@@H](COCC1CCCCC1)C(=O)NCc1ccc([N+](=O)[O-])cc1` [Example 2(86), (2S)-N-(4-nitrobenzyl)-3-cyclohexylmethoxy-2-t-butoxycarbonylamino-propanamide], the inhibition at 3 µM was determined as 83%. Next, `COc1ccc(CNC(=O)[C@H](COCC2CCCCC2)NS(=O)(=O)c2ccccc2)cc1` [Example 6(22), (2S)-N-(4-methoxybenzyl)-3-cyclohexylmethoxy-2-phenylsulfonylamino-propanamide]: 79%; `COc1ccc(CNC(=O)[C@H](COCC2CCCCC2)NC(=O)C2CCCCC2)cc1` [Example 6(27), (2S)-N-(4-methoxybenzyl)-3-cyclohexylmethoxy-2-cyclohexylcarbonylamino-propanamide]: 72%. `COc1ccc(CNC(=O)[C@H](CSCC2CCCCC2)NC(=O)[C@@H]2CSCN2C(=O)OC(C)(C)C)cc1` [Example 6(44), (2R)-N-(4-methoxybenzyl)-3-cyclohexylmethylthio-2-((4R)-3-t-butoxycarbonyl-thiazolidin-4-ylcarbonylamino)propanamide]: the inhibition at 3 µM stood at 86%.

As for `CC(C)(C)OC(=O)N1CSC[C@H]1C(=O)N[C@@H](CSCC1CCCCC1)C(=O)NCc1ccc(Oc2ccccc2)cc1` [Example 6(68), (2R)-N-(4-penoxybenzyl)-3-cyclohexylmethylthio-2-((4R)-3-t-butoxycarbonyl-thiazolidin-4-ylcarbonylamino)propanamide], the inhibition at 3 µM came out at 73%. Consider `O=C(N[C@@H](CSCC1CCCCC1)C(=O)NCc1ccc(Oc2ccccc2)cc1)[C@@H]1CSCN1` [Example 9(13), (2R)-N-(4-phenoxybenzyl)-3-cyclohexylmethylthio-2-((4R)-thiazolidin-4-ylcarbonylamino)propanamide.hydrochloride], for which the inhibition at 3 µM amounted to 88%. Next, `COc1ccc(CNC(=O)[C@H](COCC2CCCCC2)NC(=O)OC(C)(C)C)cc1` [compound 2]: 75%.

The record behind these values is US7166590B2, “Amino acid derivatives” (Ono Pharmaceutical Co., Ltd., priority 1997, dated 2007).
